From ChEMBL document CHEMBL3227937, “2',3'-Bis(2-chloroethyl)aminophosphoryl-3'-amino-3'-deoxyadenosine: a cyclic nucleotide with antitumor activity” (1979)
Values after ≈ are worked out from the molar mass of the structure shown.

Assays:
[1] = Anticancer activity against mouse LE1210 cells allografted in mouse at 0.625 mg/kg, ip relative to control; format: functional; settings: route intraperitoneal
KB = test: Cytotoxicity against human KB cells; format: functional

SMILES | T/C [1] [%] | EC50 (KB; Homo sapiens, KB, read-out: ED50 (the source's name)) [µg/mL] | ED50 (KB) [µg/mL]
CN(C)c1ncnc2c1ncn2[C@@H]1O[C@H](CO)[C@H]2NP(=O)(N(CCCl)CCCl)O[C@H]21 (mixture of isomers) | 101 |  | 
Nc1ncnc2c1ncn2[C@@H]1O[C@H](CO)[C@H]2NP(=O)(N(CCCl)CCCl)O[C@H]21 (single isomer, unassigned; isomer 1) | 101 | 1.1 (≈ 2.43 µM) | 
Nc1ncnc2c1ncn2[C@@H]1O[C@H](CO)[C@H]2NP(=O)(N(CCCl)CCCl)O[C@H]21 (single isomer, unassigned; isomer 2) |  |  | 0.66 (≈ 1.46 µM)
